Data published in patent US20260325533A1, “CDK INHIBITOR COMPOUNDS” (ALEKSIA THERAPEUTICS, INC., priority 2023, published 2026).
Where two headings read alike, the source gives them in different places.

Assays:
Type in all cases: biochemical
CDK1/CCNB1 = CDK1/CCNB1 (Homo sapiens, UniProt P06493); assay: CDK1 homogeneous time-resolved fluorescence (HTRF) kinase assay; conditions: CDK1/CCNB
Summary of the method: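 CDK1/CCNB1 0.5 nM + cpd, 20 min 23 °C; add 1 mM ATP, 50 nM ULight-4E-BP1 peptide, 60 min 23 °C; stop 10 mM EDTA; 2 nM Eu-Ab, 60 min; HTRF 665 nm. 11-pt half-log, top 10 μM typical; IC50.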

CDK2/CCNE1 = CDK2/CCNE1 (Homo sapiens, UniProt P24941); assay: CDK2 homogeneous time-resolved fluorescence (HTRF) kinase assay; conditions: CDK2/CCNE
Summary of the method: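 IC50 derived from 11-point, half-log dilutions (usually top 10 μM) of compound, 1% DMSO. Kinase (3 nM CDK2/CCNE1) was preincubated with compound 20 min, then phosphorylated 50 nM ULight-4E-BP1 peptide at 1 mM ATP for 60 min, 23 °C. Europium-antibody TR-FRET read after EDTA stop.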

CDK6/CCND1 = CDK6/CCND1 (Homo sapiens, UniProt Q00534); assay: CDK6 homogeneous time-resolved fluorescence (HTRF) kinase assay; conditions: CDK6/CCND
Sequence of CDK6/CCND1 (Q00534 whole entry): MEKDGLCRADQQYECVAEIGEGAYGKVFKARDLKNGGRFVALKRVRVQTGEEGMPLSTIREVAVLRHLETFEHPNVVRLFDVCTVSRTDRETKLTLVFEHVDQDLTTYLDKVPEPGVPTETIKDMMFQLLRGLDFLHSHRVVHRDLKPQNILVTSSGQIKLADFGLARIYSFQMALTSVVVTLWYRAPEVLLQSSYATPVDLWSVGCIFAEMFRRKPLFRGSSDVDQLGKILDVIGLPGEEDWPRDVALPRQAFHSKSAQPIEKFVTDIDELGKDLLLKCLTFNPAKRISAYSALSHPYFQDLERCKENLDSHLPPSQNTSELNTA
Sequence of CDK6/CCND1 (P24385 whole entry partner): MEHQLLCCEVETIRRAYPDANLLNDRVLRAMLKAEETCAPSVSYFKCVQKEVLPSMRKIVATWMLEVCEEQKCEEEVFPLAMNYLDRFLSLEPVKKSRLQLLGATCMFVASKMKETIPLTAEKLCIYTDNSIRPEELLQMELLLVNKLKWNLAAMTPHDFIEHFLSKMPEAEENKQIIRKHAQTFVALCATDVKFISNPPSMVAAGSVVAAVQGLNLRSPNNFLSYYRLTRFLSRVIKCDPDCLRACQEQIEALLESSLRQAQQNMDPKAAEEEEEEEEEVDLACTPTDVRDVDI
Summary of the method: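 Recombinant CDK6/CCND1 (1 nM final) was preincubated with compound for 20 min at 23 °C in HEPES buffer with MgCl2, EGTA, DTT and Tween 20. Kinase reaction then ran 60 min at 23 °C with 1 mM ATP and 50 nM ULight-4E-BP1 (Thr37/46) peptide, and was stopped with EDTA.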

CDK4/CCND3 = CDK4/CCND3 (Homo sapiens, UniProt P11802); assay: CDK4 homogeneous time-resolved fluorescence (HTRF) kinase assay; conditions: CDK4/CCND
Sequence of CDK4/CCND3 (P11802 whole entry): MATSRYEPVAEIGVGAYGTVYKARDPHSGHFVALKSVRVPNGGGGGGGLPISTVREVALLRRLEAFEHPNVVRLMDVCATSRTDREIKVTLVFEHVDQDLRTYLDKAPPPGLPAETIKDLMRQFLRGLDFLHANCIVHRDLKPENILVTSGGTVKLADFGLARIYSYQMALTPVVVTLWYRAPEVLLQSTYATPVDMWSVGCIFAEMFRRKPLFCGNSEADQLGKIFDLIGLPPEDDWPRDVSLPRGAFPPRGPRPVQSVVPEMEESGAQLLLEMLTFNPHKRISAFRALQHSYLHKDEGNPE
Sequence of CDK4/CCND3 (P30281 whole entry partner): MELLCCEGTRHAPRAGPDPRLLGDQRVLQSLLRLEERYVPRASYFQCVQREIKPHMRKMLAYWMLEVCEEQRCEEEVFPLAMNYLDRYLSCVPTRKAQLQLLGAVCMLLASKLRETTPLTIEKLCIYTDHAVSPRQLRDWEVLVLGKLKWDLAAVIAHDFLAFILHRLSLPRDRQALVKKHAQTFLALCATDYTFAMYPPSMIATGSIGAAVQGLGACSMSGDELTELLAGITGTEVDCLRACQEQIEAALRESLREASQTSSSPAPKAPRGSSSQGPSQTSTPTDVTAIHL
Protocol: A CDK homogeneous time-resolved fluorescence (HTRF) assay was used to assess the potency of the compounds described herein.
To an untreated 384-well microtiter plate (ProxiPlate) was added 100 nL 100×test compound in DMSO and 5 μL 2×CDK enzyme in assay buffer (50 mM HEPES, 1 mM EGTA, 10 mM MgCl2, 0.01% Tween 20, 2 mM DTT). The plate was centrifuged at 800 RPM for 1 min then incubated for 20 min at 23 °C. 2.5 μL per well of 4×ATP and 2.5 μL 4×ULight™-eIF4E-binding protein 1 (Thr37/46) Peptide substrate were added to all wells. After addition, the plates were centrifuged at 800 RPM for 1 min. The plates were incubated at 23 °C for 60 min. 5 μL per well 4×EDTA solution were added to each well to stop the reaction. 5 μL 4×LANCE Ultra Europium-anti-phospho-eIF4E-binding protein 1 (Thr37/46) antibody were added to each well and the plate was centrifuged for 1 min at 800 RPM. The plate was incubated for 60 min at 23 °C. Fluorescence was read at 340 nm excitation and 665 nm emission on an EnVision 2105 fluorescence reader. The final concentrations of reagents in the activity assay were 1.5 nM CDK4/CCND3, 1 mM ATP, 50 nM ULight™-eIF4E-binding protein 1 (Thr37/46) Peptide substrate, 1% DMSO, 10 mM EDTA, and 2 nM LANCE Ultra Europium-anti-phospho-eIF4E-binding protein 1 (Thr37/46).
Dose-response titrations were conducted by using an 11-point, half-logarithmic serial dilution scheme typically starting at 10 μM. Signals were reported as fluorescence units at 665 nm or the ratio of fluorescence units at 665 nm/fluorescence units at 615 nm. Signals are referred to below as “Lance signals”.
Using this assay, the IC50 values of example compounds were determined. Table 3 illustrates the IC50 for various Example compounds of Formula IA. Table 4 illustrates the IC50 for various other Example compounds of Formula I. ND=not determined.

[1] = 25-250 nM marked x, read-out: CDK1/CCNB IC50 25-250 nM
[2] = <25 nM, read-out: CDK2/CCNE IC50 <25 nM
[3] = 25-250 nM marked x, read-out: CDK6/CCND IC50 25-250 nM
[4] = 25-250 nM marked x, read-out: CDK4/CCND IC50 25-250 nM
[5] = >250 nM marked x, read-out: CDK1/CCNB IC50 >250 nM
[6] = 25-250 nM marked x, read-out: CDK2/CCNE IC50 25-250 nM
[7] = <25 nM, read-out: CDK6/CCND IC50 <25 nM
[8] = <25 nM, read-out: CDK4/CCND IC50 <25 nM
[9] = >250 nM marked x, read-out: CDK6/CCND IC50 >250 nM
[10] = >250 nM marked x, read-out: CDK4/CCND IC50 >250 nM
[11] = >250 nM marked x, read-out: CDK2/CCNE IC50 >250 nM

Sequence of CDK1/CCNB1 (P06493 whole entry): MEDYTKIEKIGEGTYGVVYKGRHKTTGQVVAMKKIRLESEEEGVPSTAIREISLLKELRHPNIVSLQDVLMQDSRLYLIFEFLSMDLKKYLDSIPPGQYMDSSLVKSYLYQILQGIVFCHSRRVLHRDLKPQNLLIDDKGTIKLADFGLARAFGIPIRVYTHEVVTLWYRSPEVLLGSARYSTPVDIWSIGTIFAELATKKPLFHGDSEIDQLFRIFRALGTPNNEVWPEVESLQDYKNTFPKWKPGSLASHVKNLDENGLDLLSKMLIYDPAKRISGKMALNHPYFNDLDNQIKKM
Sequence of CDK1/CCNB1 (P14635 whole entry partner): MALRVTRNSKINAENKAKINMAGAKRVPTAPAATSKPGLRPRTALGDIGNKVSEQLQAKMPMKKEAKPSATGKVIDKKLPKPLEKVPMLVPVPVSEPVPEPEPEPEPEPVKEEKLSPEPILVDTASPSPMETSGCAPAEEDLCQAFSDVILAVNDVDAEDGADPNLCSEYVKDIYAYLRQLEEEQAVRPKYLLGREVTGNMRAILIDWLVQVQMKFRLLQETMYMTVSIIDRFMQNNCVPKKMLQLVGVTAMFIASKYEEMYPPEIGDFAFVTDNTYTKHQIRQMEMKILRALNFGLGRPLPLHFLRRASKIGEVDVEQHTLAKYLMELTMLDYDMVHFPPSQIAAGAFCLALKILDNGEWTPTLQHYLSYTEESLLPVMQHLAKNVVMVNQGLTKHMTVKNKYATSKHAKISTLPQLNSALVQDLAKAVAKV

IC50 (CDK1/CCNB1; [1]) [nM] | IC50 (CDK2/CCNE1; [2]) [nM] | IC50 (CDK6/CCND1; [3]) [nM] | IC50 (CDK4/CCND3; [4]) [nM] | IC50 (CDK1/CCNB1; [5]) [nM] | IC50 (CDK2/CCNE1; [6]) [nM] | IC50 (CDK6/CCND1; [7]) [nM] | IC50 (CDK4/CCND3; [8]) [nM] | IC50 (CDK6/CCND1; [9]) [nM] | IC50 (CDK4/CCND3; [10]) [nM] | IC50 (CDK2/CCNE1; [11]) [nM] | SMILES
25 to 250 | < 25 | 25 to 250 | 25 to 250 |  |  |  |  |  |  |  | CS(=O)(=O)N1CCC(Nc2cc3c(N4CCCC(O)C4)nccc3cn2)CC1 (racemic) [Ex 42, 1-(7-((1-(methylsulfonyl)piperidin-4-yl)amino)-2,6-naphthyridin-1-yl)piperidin-3-ol]
 | < 25 | 25 to 250 | 25 to 250 | > 250 |  |  |  |  |  |  | CS(=O)(=O)N1CCC(Nc2cc3c(N4CCC(C#N)C4)nccc3cn2)CC1 (racemic) [Ex 45, 1-(7-((1-(methylsulfonyl)piperidin-4-yl)amino)-2,6-naphthyridin-1-yl)pyrrolidine-3-carbonitrile]
 |  |  |  | > 250 | 25 to 250 | < 25 | < 25 |  |  |  | CN(C)C1CCCN(c2nccc3cnc(NC4CCN(S(C)(=O)=O)CC4)cc23)CC1 (racemic) [Ex 52, 5-(4-(dimethylamino)azepan-1-yl)-N-(1-(methylsulfonyl)piperidin-4-yl)-2,6-naphthyridin-3-amine]
25 to 250 | < 25 |  |  |  |  | < 25 | < 25 |  |  |  | O=C(NC1CCSC1=O)c1ccc(Nc2cc3c(C4=CCCCC4)nccc3cn2)cc1 (racemic) [Ex 114, 4-((5-(cyclohex-1-en-1-yl)-2,6-naphthyridin-3-yl)amino)-N-(2-oxotetrahydrothiophen-3-yl)benzamide]
 | < 25 | 25 to 250 | 25 to 250 | > 250 |  |  |  |  |  |  | CS(=O)(=O)c1ccc(Nc2cc3c(C4=CCC(O)CC4)nccc3cn2)cc1 (racemic) [Ex 120, 4-(7-((4-(methylsulfonyl)phenyl)amino)-2,6-naphthyridin-1-yl)cyclohex-3-en-1-ol]
 | < 25 | 25 to 250 | 25 to 250 | > 250 |  |  |  |  |  |  | CS(=O)(=O)c1ccc(Nc2cc3c(C4=CCC(C#N)CC4)nccc3cn2)cc1 (racemic) [Ex 121, 4-(7-((4-(methylsulfonyl)phenyl)amino)-2,6-naphthyridin-1-yl)cyclohex-3-ene-1-carbonitrile]
 |  |  |  | > 250 | 25 to 250 |  |  | > 250 | > 250 |  | C=CS(=O)(=O)c1ccc(Nc2cc3c(N4CCC(C#N)C4)nccc3cn2)cc1 (racemic) [Ex 122, 1-(7-((4-(vinylsulfonyl)phenyl)amino)-2,6-naphthyridin-1-yl)pyrrolidine-3-carbonitrile]
25 to 250 | < 25 | 25 to 250 | 25 to 250 |  |  |  |  |  |  |  | CS(=O)(=O)c1ccc(Nc2cc3c(C#CC4CC(O)C4)nccc3cn2)cc1 (racemic) [Ex 147, 3-((7-((4-(methylsulfonyl)phenyl)amino)-2,6-naphthyridin-1-yl)ethynyl)cyclobutan-1-ol]
 | < 25 | 25 to 250 | 25 to 250 | > 250 |  |  |  |  |  |  | Cc1c(-c2nccc3cnc(Nc4ccc(S(C)(=O)=O)cc4)cc23)ccc2c1cnn2CC1CCNC1 (racemic) [Ex 193, 5-(4-methyl-1-(pyrrolidin-3-ylmethyl)-1H-indazol-5-yl)-N-(4-(methylsulfonyl)phenyl)-2,6-naphthyridin-3-amine]
 |  |  |  | > 250 | 25 to 250 |  |  | > 250 | > 250 |  | CS(=O)(=O)c1ccc(Nc2cc3c(C4CCC(O)CC4)nccc3cn2)cc1 (racemic) [Ex 215, 4-(7-((4-(methylsulfonyl)phenyl)amino)-2,6-naphthyridin-1-yl)cyclohexan-1-ol]
 |  |  |  | > 250 | 25 to 250 |  |  | > 250 | > 250 |  | O=S(=O)(CCO)c1ccc(Nc2cc3c(N4CCC(O)C4)nccc3cn2)cc1 (racemic) [Ex 221, 1-(7-((4-((2-hydroxyethyl)sulfonyl)phenyl)amino)-2,6-naphthyridin-1-yl)pyrrolidin-3-ol]
 |  |  |  | > 250 |  |  |  | > 250 | > 250 | > 250 | CN1CCC(c2nccc3cnc(Nc4ccc(S(C)(=O)=O)cc4)cc23)C1 (racemic) [Ex 229, 5-(1-methylpyrrolidin-3-yl)-N-(4-(methylsulfonyl)phenyl)-2,6-naphthyridin-3-amine]
 |  |  |  | > 250 |  |  |  | > 250 | > 250 | > 250 | CS(=O)(=O)c1ccc(Nc2cc3c(C4CCN(Cc5ccccc5)C4)nccc3cn2)cc1 (racemic) [Ex 230, 5-(1-benzylpyrrolidin-3-yl)-N-(4-(methylsulfonyl)phenyl)-2,6-naphthyridin-3-amine]
 |  |  |  | > 250 |  |  |  | > 250 | > 250 | > 250 | COc1ccc(CN2CCC(c3nccc4cnc(Nc5ccc(S(C)(=O)=O)cc5)cc34)C2)cc1 (racemic) [Ex 231, 5-(1-(4-methoxybenzyl)pyrrolidin-3-yl)-N-(4-(methylsulfonyl)phenyl)-2,6-naphthyridin-3-amine]
 |  |  |  | > 250 |  |  |  | > 250 | > 250 | > 250 | CS(=O)(=O)c1ccc(Nc2cc3c(C4CCN(Cc5cccnc5)C4)nccc3cn2)cc1 (racemic) [Ex 232, N-(4-(methylsulfonyl)phenyl)-5-(1-(pyridin-3-ylmethyl)pyrrolidin-3-yl)-2,6-naphthyridin-3-amine]
 |  |  |  | > 250 | 25 to 250 |  |  | > 250 | > 250 |  | CS(=O)(=O)c1ccc(Nc2cc3c(C4CCN(Cc5ccc(Cl)cc5)C4)nccc3cn2)cc1 (racemic) [Ex 233, 5-(1-(4-chlorobenzyl)pyrrolidin-3-yl)-N-(4-(methylsulfonyl)phenyl)-2,6-naphthyridin-3-amine]
 |  |  |  | > 250 |  |  |  | > 250 | > 250 | > 250 | CCC(=O)N1CCC(c2nccc3cnc(Nc4ccc(S(C)(=O)=O)cc4)cc23)C1 (racemic) [Ex 234, 1-(3-(7-((4-(methylsulfonyl)phenyl)amino)-2,6-naphthyridin-1-yl)pyrrolidin-1-yl)propan-1-one]
 |  |  |  | > 250 |  |  |  | > 250 | > 250 | > 250 | CS(=O)(=O)c1ccc(Nc2cc3c(C4CCN(S(C)(=O)=O)C4)nccc3cn2)cc1 (racemic) [Ex 235, N-(4-(methylsulfonyl)phenyl)-5-(1-(methylsulfonyl)pyrrolidin-3-yl)-2,6-naphthyridin-3-amine]
 |  |  |  | > 250 |  |  |  | > 250 | > 250 | > 250 | CC(C)S(=O)(=O)N1CCC(c2nccc3cnc(Nc4ccc(S(C)(=O)=O)cc4)cc23)C1 (racemic) [Ex 236, 5-(1-(isopropylsulfonyl)pyrrolidin-3-yl)-N-(4-(methylsulfonyl)phenyl)-2,6-naphthyridin-3-amine]
 |  |  |  | > 250 |  |  |  | > 250 | > 250 | > 250 | C=CCS(=O)(=O)N1CCC(c2nccc3cnc(Nc4ccc(S(C)(=O)=O)cc4)cc23)C1 (racemic) [Ex 237, 5-(1-(allylsulfonyl)pyrrolidin-3-yl)-N-(4-(methylsulfonyl)phenyl)-2,6-naphthyridin-3-amine]
